# Results reported in US20210386695A1 (priority 2020, published 2021).
# Columns and labels:
# Format in all cases: cell-based
# [1] = tested on: B.1.1.7 variant of SARS-CoV-2 pseudo-particles; test: microbe, parasite or virus in culture; conditions: Severe acute respiratory syndrome coronavirus 2, Vero C1008
# [2] = tested on: 501Y-V2 variant of SARS-CoV-2 pseudo-particles; test: microbe, parasite or virus in culture; conditions: Severe acute respiratory syndrome coronavirus 2, Vero C1008
# [3] = tested on: B.1.1.7 variant of SARS-CoV-2 pseudo-particles
# [4] = tested on: B.1.1.7 variant of SARS-CoV-2 pseudo-particles; remark: listed apart in the source
compound,measurement,setting,value
CCN(CC)C(=S)SSC(=S)N(CC)CC [disulfiram],EC50,[1],3.18 µM
same,EC50,[2],3.84 µM
same,block of viral pseudo-particles infection,[3],dose-dependent manner
same,inhibitory capacity in furin-expressing Vero E6 cells compared with Vero E6 cells,[4],similar
